Here are results for 36 molecules from US8785486B2, “Imidazo[1,2-A]pyridine derivatives and their use as positive allosteric modulators of mGluR2 receptors” (Janssen Pharmaceuticals, Inc., priority 2007, dated 2014).

For series [1], the target named is T1, human mGluR2 receptor (Homo sapiens, UniProt Q14416).
T1 construct: expressed in transfected cells; host or cells: CHO cells
Kind of series: [35S]GTPγS binding assay (PAM assay) using membranes from cells transfected with the human mGluR2 receptor. It is filed as biochemical. As to conditions: membranes of CHO cells with human mGluR2, glutamate at predetermined EC25 concentration, averages of duplicate values of 11-concentration response curves; for EC50: read-out: GTPγS - hR2 PAM pEC50 (converted). On the procedure:
The [^35S]GTPγS binding assay is a functional membrane-based assay used to study G-protein coupled receptor (GPCR) function whereby incorporation of a non-hydrolysable form of GTP, [^35S]GTPγS (guanosine 5′-triphosphate, labelled with […] ^35S), is measured.
CHO-cells were cultured to pre-confluence and stimulated with 5 mM butyrate for 24 hours, prior to washing in PBS, and then collection by scraping in homogenisation buffer (50 mM Tris-HCl buffer, pH 7.4, 4° C.). Cell lysates were homogenized briefly (15 s) using an ultra-turrax homogenizer. The homogenate was centrifuged at 23 500×g for 10 minutes and the supernatant discarded. The pellet was resuspended in 5 mM Tris-HCl, pH 7.4 and centrifuged again (30 000×g, 20 min, 4° C.). The final pellet was resuspended in 50 mM HEPES, pH 7.4 and stored at −80° C. in appropriate aliquots before use. Protein concentration was determined by the Bradford method (Bio-Rad, USA) with bovine serum albumin as standard.
Measurement of mGluR2 positive allosteric modulatory activity of test compounds in membranes containing human mGluR2 was performed using frozen membranes that were thawed and briefly homogenised prior to pre-incubation in 96-well microplates (15 μg/assay well, 30 minutes, 30° C.) in assay buffer (50 mM HEPES pH 7.4, 100 mM NaCl, 3 mM MgCl2, 50 μM GDP, 10 μg/ml saponin,) with increasing concentrations of positive allosteric modulator (from 0.3 nM to 50 μM) and either a minimal pre-determined concentration of glutamate (PAM assay), or no added glutamate. […] After addition of [^35S]GTPγS (0.1 nM, f.c.) to achieve a total reaction volume of 200 μl, microplates were shaken briefly and further incubated to allow [^35S]GTPγS incorporation on activation (30 minutes, 30° C.). The reaction was stopped by rapid vacuum filtration over glass-fibre filter plates (Unifilter 96-well GF/B filter plates, Perkin-Elmer, Downers Grove, USA) microplate using a 96-well plate cell harvester (Filtermate, Perkin-Elmer, USA), and then by washing three times with 300 μl of ice-cold wash buffer (Na2PO4.2H2O 10 mM, NaH2PO4.H2O 10 mM, pH=7.4). Filters were then air-dried, and 40 μl of liquid scintillation cocktail (Microscint-O) was added to each well, and membrane-bound [^35S]GTPγS was measured in a 96-well scintillation plate reader (Top-Count, Perkin-Elmer, USA). Non-specific [^35S]GTPγS binding is determined in the presence of cold 10 μM GTP. Each curve was performed at least once using duplicate sample per data point and at 11 concentrations.
The concentration-response curves of representative compounds of the present invention in the presence of added EC25 of mGluR2 agonist glutamate to determine positive allosteric modulation (PAM), were generated using the Prism GraphPad software (Graph Pad Inc, San Diego, USA). The curves were fitted to a four-parameter logistic equation (Y=Bottom+(Top-Bottom)/(1+10^((Log EC50−X)*Hill Slope) allowing determination of EC50 values. The EC50 is the concentration of a compound that causes a half-maximal potentiation of the glutamate response. This is calculated by subtracting the maximal responses of glutamate in presence of a fully saturating concentration of a positive allosteric modulator from the response of glutamate in absence of a positive allosteric modulator. The concentration producing the half-maximal effect is then calculated as EC50
Background: Binding of GTPγS marks nucleotide exchange on a G protein.

T1 sequence (Q14416 19-872): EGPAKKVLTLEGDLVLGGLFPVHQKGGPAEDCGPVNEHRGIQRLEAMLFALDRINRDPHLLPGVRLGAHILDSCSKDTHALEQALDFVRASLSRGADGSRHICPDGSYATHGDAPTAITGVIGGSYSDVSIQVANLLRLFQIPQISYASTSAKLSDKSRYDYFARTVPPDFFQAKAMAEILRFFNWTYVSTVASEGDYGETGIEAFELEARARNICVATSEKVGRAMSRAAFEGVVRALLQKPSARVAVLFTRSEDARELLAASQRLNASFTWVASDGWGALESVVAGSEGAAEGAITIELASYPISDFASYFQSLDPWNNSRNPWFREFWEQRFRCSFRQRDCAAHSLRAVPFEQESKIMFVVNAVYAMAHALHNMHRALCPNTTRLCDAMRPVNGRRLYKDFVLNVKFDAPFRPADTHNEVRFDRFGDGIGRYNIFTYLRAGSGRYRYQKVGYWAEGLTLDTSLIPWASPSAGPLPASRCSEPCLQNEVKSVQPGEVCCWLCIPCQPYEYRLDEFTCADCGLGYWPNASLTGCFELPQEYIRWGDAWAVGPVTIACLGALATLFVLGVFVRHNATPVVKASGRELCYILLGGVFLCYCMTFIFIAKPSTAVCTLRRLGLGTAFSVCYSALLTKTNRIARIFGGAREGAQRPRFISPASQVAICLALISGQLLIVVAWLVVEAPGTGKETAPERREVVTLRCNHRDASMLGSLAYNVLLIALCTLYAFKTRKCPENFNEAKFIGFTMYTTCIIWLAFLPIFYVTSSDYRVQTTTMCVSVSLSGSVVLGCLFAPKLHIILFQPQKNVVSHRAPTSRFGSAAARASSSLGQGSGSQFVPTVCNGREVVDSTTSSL

The term melting point denotes the temperature, or range, at which the solid turns liquid. The molecule `N#Cc1c(N2CCN(c3ncccn3)CC2)ccn2c(CC(F)(F)F)cnc12` [Example 2, 7-(4-Pyrimidin-2-yl-piperazin-1-yl)-3-(2,2,2-trifluoro-ethyl)-imidazo[1,2-a]pyridine-8-carbonitrile] gave a melting point of 239 °C. In addition, the “GTPγS - hR2 PAM pEC50” value in series [1] is 6.07.
Turning to `CCc1cnc2c(C#N)c(N3CCC(O)(c4ccccc4)CC3)ccn12` [Example 16], the melting point was found to be 265 °C. For the same molecule, in series [1], the EC50 is 1000 nM.
On to `Cc1cc(C)nc(N2CCN(c3ccn4c(CC(F)(F)F)cnc4c3C#N)CC2)n1` [Example 34], for which the melting point is > 300 °C. For the same molecule, in series [1], the “GTPγS - hR2 PAM pEC50” value is listed as 6.35.
The molecule `N#Cc1c(N2CCC(c3ccccc3)CC2)ccn2c(-c3ccc(F)cc3F)cnc12` [Example 47] registered a melting point of 267 °C. For the same molecule, in series [1], the EC50 is 229 nM.
The like results for `N#Cc1c(N2CCC(O)(c3ccccc3)CC2)ccn2c(CC(F)(F)F)cnc12` [Example 30] were, in that order, 272.1 °C and 417 nM.
The molecule `N#Cc1c(CN2CCC(F)(c3ccccc3)CC2)ccn2c(CC(F)(F)F)cnc12` [Example 40] yielded a melting point of 145 °C. Besides, the EC50 in series [1] is 1290 nM.
Regarding `CC(C)(O)c1ccc(C2CCN(c3ccn4c(CC(F)(F)F)cnc4c3Cl)CC2)cc1` [Example 63], the melting point came out at 189.3 °C. Moreover, the EC50 in series [1] is 389 nM.
Regarding `Cc1c(N2CCC(c3ccccc3)CC2)ccn2c(CC(F)(F)F)cnc12` [Example 64], the melting point worked out at 213.9 °C. Also, the EC50 in series [1] is 1550 nM.
The like results for `CC(C)(O)c1ccccc1C1CCN(c2ccn3c(CC(F)(F)F)cnc3c2Cl)CC1` [Example 65, 2-(2-{1-[8-Chloro-3-(2,2,2-trifluoro-ethyl)-imidazo[1,2-a]pyridin-7-yl]-piperidin-4-yl}-phenyl)-propan-2-ol] were, in that order, 234.7 °C and 178 nM.
For the molecule `N#Cc1c(-c2ccc(Oc3ccc(F)cc3)cc2)ccn2c(CC(F)(F)F)cnc12` [Example 74], the melting point was 163 °C. Further, the EC50 in series [1] was 170 nM.
Turning to `CCCc1cnc2c(C#N)c(N3CCN(c4nc(C)cc(C)n4)CC3)ccn12` [Example 14], the melting point is 194.4 °C. Moreover, the “GTPγS - hR2 PAM pEC50” value in series [1] stood at 6.19.
The like results for `N#Cc1c(-c2ccc(Oc3ccccc3)cc2)ccn2c(CC(F)(F)F)cnc12` [Example 80] were, in that order, 174.3 °C and 6.73.
On to `CCc1cnc2c(C#N)c(N3CCN(c4nc(C)cc(C)n4)CC3)ccn12` [Example 19], for which the melting point was 231.4 °C. In addition, the “GTPγS - hR2 PAM pEC50” value in series [1] is 5.64.
Molecule `CC(O)(c1ccccc1)c1ccc(-c2ccn3c(CC(F)(F)F)cnc3c2C#N)cc1` (stereo not drawn) [Example 81] returned a melting point of 102.7 °C. In addition, the EC50 in series [1] is 525 nM.
The like results for `N#Cc1c(N2CCC3(CC2)OCc2ccccc23)ccn2c(CC(F)(F)F)cnc12` [Example 58] were, in that order, 212.9 °C and 97.7 nM.
For `CC(C)(O)c1ccc(Oc2ccc(-c3ccn4c(CC(F)(F)F)cnc4c3C#N)cc2)cc1` [Example 82], in that order: 143.2 °C and 44.7 nM.
The like results for `FC(F)(F)Cc1cnc2c(Cl)c(-c3ccc(NC4CCOCC4)c(Cl)c3)ccn12` [Example 99] were, in that order, 149.7 °C and 631 nM.
Consider `Cc1cc(Oc2ccc(-c3ccn4c(CCCC(F)(F)F)cnc4c3C#N)cc2F)ccn1` [Example 73], for which the melting point came to 234.1 °C. The EC50 in series [1] is 1050 nM.
`N#Cc1c(N2CCC3(CCc4ccccc4O3)CC2)ccn2c(CC(F)(F)F)cnc12` [Example 115] yielded a melting point of 198.7 °C. In addition, the EC50 in series [1] was 214 nM.
In the case of `N#Cc1c(N2CCC(c3cccc(C(F)(F)F)c3)CC2)ccn2c(CC(F)(F)F)cnc12` [Example 32], the melting point is > 300 °C. Moreover, the EC50 in series [1] is 81.3 nM.
The like results for `FC(F)(F)Cc1cnc2c(Cl)c(CN3CCC(F)(c4ccccc4)CC3)ccn12` [Example 35] were, in that order, 154.8 °C and 603 nM.
Turning to `Cc1cc(Oc2ccc(-c3ccn4c(CCC5CC5)cnc4c3C#N)cc2F)ccn1` [Example 75], the melting point turned out to be 277.2 °C. Moreover, the EC50 in series [1] was 372 nM.
Regarding `N#Cc1c(CN2CCC(c3ccccc3F)CC2)ccn2c(CC(F)(F)F)cnc12` [Example 44], the melting point stood at 152 °C. The EC50 in series [1] was 324 nM.
For `N#Cc1c(-c2ccc(Oc3cccc(F)c3)cc2)ccn2c(CC(F)(F)F)cnc12` [Example 78], the melting point was determined as 176 °C. The EC50 in series [1] is 219 nM.
The molecule `N#Cc1c(-c2ccc(O[C@H]3CC[C@@H](O)CC3)c(Cl)c2)ccn2c(CC(F)(F)F)cnc12` [Example 103] displayed a melting point of 210.2 °C. Also, the EC50 in series [1] is 933 nM.
The like results for `CCCc1cnc2c(C#N)c(-c3ccc(Oc4cccnc4C)cc3)ccn12` [Example 9] were, in that order, 159 °C and 316 nM.
The like results for `CCCc1cnc2c(C#N)c(-c3ccc(Oc4ccnc(C)c4)cc3)ccn12` [Example 11] were, in that order, 181.8 °C and 427 nM.
`N#Cc1c(N2CCC(c3ccccc3)CC2)ccn2c(CCC3CC3)cnc12` [Example 48] displayed a melting point of 145.4 °C. Moreover, the EC50 in series [1] is 93.3 nM.
Consider `C[C@]1(O)CC[C@@H](Nc2ccc(-c3ccn4c(CC(F)(F)F)cnc4c3C#N)cc2Cl)CC1` [Example 89], for which the melting point was determined as 161.6 °C. Besides, the EC50 in series [1] is 275 nM.
For `Fc1ccc(N2CCN(Cc3ccn4c(CC(F)(F)F)cnc4c3Cl)CC2)c(F)c1` [Example 37], in that order: 156.9 °C and 3020 nM.
The like results for `FC(F)(F)Cc1cnc2c(Cl)c(N3CCC(F)(c4ccccc4)CC3)ccn12` [Example 50, 8-Chloro-7-(4-fluoro-4-phenyl-piperidin-1-yl)-3-(2,2,2-trifluoro-ethyl)-imidazo[1,2-a]pyridine] were, in that order, 220.7 °C and 195 nM.
For `N#Cc1c(-c2ccc(N[C@H]3CC[C@H](O)CC3)c(Cl)c2)ccn2c(CC(F)(F)F)cnc12` [Example 96, (trans)-7-[3-Chloro-4-(4-hydroxy-cyclohexylamino)-phenyl]-3-(2,2,2-trifluoro-ethyl)-imidazo[1,2-a]pyridine-8-carbonitrile], in that order: 123.7 °C and 295 nM.
With `N#Cc1c(-c2ccc(COc3cccc(F)c3)cc2)ccn2c(CC(F)(F)F)cnc12` [Example 114], the melting point was 207.1 °C. In addition, the EC50 in series [1] was 141 nM.
For `N#Cc1c(-c2ccc(C(F)c3ccccc3)cc2)ccn2c(CC(F)(F)F)cnc12` (stereo not drawn) [Example 79], in that order: 173.4 °C and 257 nM.
`FC(F)(F)Cc1cnc2c(Cl)c(N3CCC4(CC3)OCc3ccccc34)ccn12` [Example 66] yielded a melting point of 174.4 °C. In series [1], the EC50 is 282 nM.
For `N#Cc1c(N2CCC(F)(c3ccccc3)CC2)ccn2c(CC(F)(F)F)cnc12` [Example 68, 7-(4-Fluoro-4-phenyl-piperidin-1-yl)-3-(2,2,2-trifluoro-ethyl)-imidazo[1,2-a]pyridine-8-carbonitrile], in that order: 214 °C and 93.3 nM.
